| Structure (SMILES) | melting point |
| --- | --- |
| CC(CC(F)(F)F)C(=O)Nc1cnn(-c2cccnc2)c1 (stereo not given) | 140 to 145 °C |
| Cc1c(C)c2c(c(C)c1NC(=O)CC(C)(C)C)C(c1ccc(C3CCCCC3)cc1)CO2 (stereo not given) | 146 to 148 °C |
| C[C@@H](NS(=O)(=O)c1ccc(Cl)cc1)[C@](O)(Cn1cncn1)c1ccc(Cl)cc1Cl (relative stereo) | 160 to 165 °C |
| O=c1ccc2cc([C@H](c3cccc(C(F)(F)F)c3)n3cncn3)ccc2[nH]1 | 176 °C |
| CCNc1n[nH]c2ccc(C3C(C#N)=C(C)NC(C)=C3C#N)cc12 | 248 °C |
| CN(C)c1ccc2nc(N)c(C#N)c(O)c2c1 | 360 °C |
| CCCCOCCOc1ccc(-c2ccc(N(C)Cc3cnn(C)c3)c(C=CC(=O)O)c2)cc1 | 125 to 127 °C |
| CCC(=C(c1ccc(O)cc1)c1ccc(O)cc1)c1cccc(/C=C/C(=O)O)c1 | 280 to 281 °C |
| CC(C)(Sc1cccc(OCc2ccc(-c3ccc([N+](=O)[O-])cc3)o2)c1)C(=O)O | 137 to 138 °C |
| c1cncc(-n2cnnn2)c1 | 74 to 76 °C |
| CC(C)(C)c1cc(-n2nc3ccc(C(F)(F)F)cc3n2)c(O)c(C(C)(C)C)c1 | 131 to 133 °C |
| COc1ccc(-c2nn3c(S(C)=O)nnc3c3ccccc23)cc1 (stereo not given) | 201 °C |
| CCOC(C)O[C@H]1C(=O)N(C(=O)Nc2ccccc2)[C@H]1c1ccccc1 (stereo not given in full) | 152 to 155 °C |
| O=CNn1cnc2cc(C(F)(F)F)ccc21 | 209 to 210 °C |
| CC(C)n1nc(-c2nc(C#N)c(C#N)nc2-c2ccccc2Br)ccc1=O | 160 to 161 °C |
| CC(C)(C)OC(=O)N1CCNC(=O)C1Cc1ccccc1 (stereo not given) | 152 to 154 °C |
| O=C(Cc1ccsc1)Nc1ncc(Cl)cc1Cl | 159 to 160 °C |
| CS(=O)(=O)c1ccc(-c2cc(-c3nc4ccccc4c(=O)n3-c3ccccc3Cl)sc2N2CCOCC2)cc1 | > 275 °C |
| CCCCc1nc2c(N)nc3ccccc3c2n1CCCCCCCCNC(=O)Nc1ccccc1 | 153 to 155 °C |
| CCCCCS(=O)(=O)NC(=O)C=Cc1ccc(OCCCC#N)cc1Oc1ncc(C(F)(F)F)cc1Cl | 165 to 166 °C |
| CCCCCCCCC(=O)Oc1cc2c(s1)CCN(C(C(=O)C1CC1)c1ccccc1F)C2 (stereo not given) | 45 to 48 °C |
| CCCCCCNCCC(=O)O | 95 to 97 °C |
| COc1ccc2c(Cc3c(Cl)cncc3Cl)nncc2c1C#Cc1ccccc1 | 217 to 219 °C |
| COc1cc2nc(N)nc(-c3ccc(Br)cc3CO)c2cc1OC | 222 to 223 °C |
| OCCNc1ccc(C2CCCCC2)cc1 | 39 to 41 °C |

| Structure (SMILES) | melting point |
| --- | --- |
| Cc1cc(OCC(F)(F)F)c(NC(=O)CBr)c(OCC(F)(F)F)n1 | 153 to 154 °C |
| Nc1nc(Cl)c2c(n1)OCC2 | 258 to 263 °C |
| O=S1(=O)N=C(c2ccccc2)c2ccccc21 | 118 °C |
| COCc1ncccc1CN(CCn1ccc2occc2c1=O)Cc1ccc2c(c1)NC(=O)C(C)(C)C(=O)N2CC(C)C | 149 to 151 °C |
| Nc1nc2ccccc2c2c1ncn2CC1(O)CCC1 | > 250 °C |
| COCC(=O)N[C@H]1CC[C@H](CCN2CCN(c3nccc4ccoc34)CC2)CC1 | 132 °C |
| COc1ccc(-c2cc(C(Cl)Cl)nn2-c2ccc(S(N)(=O)=O)cc2)cc1F | 190 to 193 °C |
| CCN(CC)CCNc1ccnc2cc(C(F)(F)F)ccc12 | 122 to 124 °C |
| Cc1onc(NS(=O)(=O)c2ccccc2-c2ccc(-c3ncco3)cc2CN2CCC(C)(C)C2=O)c1C | 110 to 117 °C |
| CNS(=O)(=O)C1CN(C)c2cc(F)ccc2C1=O (stereo not given) | 134 to 136 °C |
| C=C(C(=O)c1ccc(OC)c(Cl)c1Cl)C1CCCC1 | 59 to 63 °C |
| COc1ccc(Oc2ccc(C(F)(F)F)cc2Cl)cc1[N+](=O)[O-] | 90 to 92 °C |
| O=C1c2cc(S(=O)(=O)N3CCCCC3)ccc2SC12CC2 | 156 to 157 °C |
| CCCOC(=O)C(C)Oc1ccc(Oc2cnc3cc(Cl)ccc3n2)cc1F (stereo not given) | 70 to 72 °C |
| O=C1Nc2ccccc2CO1 | 118 to 119 °C |
| CSc1nn2c(N)cc(CN3CCN(C)CC3)nc2c1S(=O)(=O)c1ccccc1 | 203 to 205 °C |
| CN1CCC(N(CCN2CCCC2)S(=O)(=O)c2ccc(Nc3nccc(Nc4ccc(F)cc4)n3)cc2)CC1 | 250 °C |
| C=CC(=O)NC(CCC(=O)O)C(=O)O (stereo not given) | 125 to 127 °C |
| CCN1C(=O)C(C)(C)C(=O)N(C)c2cc(CN(CCn3ccc4sccc4c3=O)Cc3cnccc3C)ccc21 | 145 to 147 °C |
| CC(C)c1ccc(-c2cc(-c3cccc(C(=O)O)c3)cs2)cc1 | 208 to 209 °C |
| O=C(O)COC(=O)C=Cc1ccccc1 | 116 to 121 °C |
| COc1ccc(C(=O)Cc2c(Cl)cncc2Cl)c2c1CC1(CCCC1)O2 | 70 to 72 °C |
| CCOC1=NS(=O)C(C(N)=O)=C1Br (stereo not given) | 168 to 172 °C |
| Cc1cc(-c2ccccc2)n(-c2ccc(C(=O)O)cc2)n1 | 159 to 162 °C |
| CSc1nc(NC2CCCCC2)c2ccnc-2[nH]1 | 189 to 190 °C |

| Structure (SMILES) | melting point |
| --- | --- |
| C=Cc1ccc(CSCCC(=O)O)cc1 | 77 to 78 °C |
| COc1ccccc1Sc1c(Cl)ncnc1Cl | 103 °C |
| CN1C(=O)N(CC(CS(=O)(=O)c2ccc(Oc3ccc(Cl)cc3)cc2)N(O)C=O)C(=O)C1(C)C (single isomer, unassigned; (-)) | 111 °C |
| FC(F)(F)c1ccc(-c2cc(Oc3cncc4ccccc34)ncn2)cc1 | 206 to 211 °C |
| O=C1N(Cc2cccc(C(F)(F)F)c2)c2ccccc2C12COc1cc3c(cc12)OCCO3 (stereo not given) | 131 to 134 °C |
| O=C(O)c1cccc(Cn2cc(C3c4ccccc4C=Cc4ccccc43)c(=S)[nH]c2=S)c1 | 167 to 170 °C |
| O=C(NCc1ccc(Cl)cc1)c1cnc2c(F)cc(C#CCO)cc2c1O | 277 to 279 °C |
| COC(=O)c1ccc2c(c1)CCC(CCN1CCC(c3ccccc3)CC1)C2=O (stereo not given) | 110 to 112 °C |
| CC(=O)N(C(C)=O)C(C)=C1CC2C3CC4C2C4C13 (stereo not given) | 112 to 128 °C |
| CC(C)OC(=O)NC1(c2ccccc2Cl)CCCCC1=O (stereo not given) | 124 to 126 °C |
| Cc1oc(-c2ccccc2)nc1COc1cncc(CO)c1 | 111 to 112 °C |
| Cc1c(O[Si](C(C)C)(C(C)C)C(C)C)cc2occ(N3CCC(O)(c4ccc(F)cc4)CC3)c(=O)c2c1Br | 193 to 195 °C |
| Fc1cc2c(c(-c3c(Cl)cccc3Cl)c1)OC(CNC1CC1)C2 (stereo not given) | 112 to 113 °C |
| Clc1cnc(Sc2ccccc2)nc1 | 47 °C |
| CN(C)C(c1ccccc1)(c1cccc(Oc2ccccc2)c1)C1CCCCC1(O)Cc1ccccc1 (stereo not given) | 189 to 190 °C |
| CCN(CC)C(=O)C1CCN(Cc2cnc3cc(NC(=O)c4ccc(-c5ccc(F)cc5)cc4)c(C)cc3c2)CC1 | 203 °C |
| CCOC(=O)C(C)Oc1cc(N=C(C(N)=O)N2CCCC2)c(Cl)cc1Cl (stereo not given) | 160 to 163 °C |
| CN1CCN(c2nc(C=C3SC(=S)N(CC(=O)O)C3=O)cs2)CC1 | > 300 °C |
| CCS(=O)(=O)N(C)[C@@H]1c2cc([N+](=O)[O-])ccc2OCC[C@H]1O (relative stereo) | 133 to 135 °C |
| CCN1CS(=O)c2cccc(Cl)c21 (stereo not given) | 94 to 98 °C |
| CC(=O)c1cc2c(Cl)cccc2s1 | 113 to 115 °C |
| CC(O)(c1nc2ccc(S(=O)(=O)c3ccccc3)cc2c(=O)[nH]1)C(F)(F)F (stereo not given) | 202 to 204 °C |
| N#CC1=C(c2ccccc2)Nc2n[nH]cc2C1c1cccc(Cl)c1Cl (stereo not given) | 162 °C |
| CN(CCc1ccc(N)cc1)C1Cc2ccc(N)cc2C1 (stereo not given) | 112 to 114 °C |
| CN(C)C1(c2ccccc2)CCC2(OCCc3c2[nH]c2ccc(F)cc32)C(F)C1 (stereo not given) | 237 to 242 °C |

| Structure (SMILES) | melting point |
| --- | --- |
| CNS(=O)(=O)Oc1ccc2c(c1)C(C)(C)C(O)O2 (stereo not given) | 111 to 112 °C |
| CCOC(=O)C=Cc1cnc(Nc2ccccc2)nc1N | 190 to 192 °C |
| CCOC(=O)c1cc2c(C(F)(F)F)cc(OCC(=O)OC(C)(C)C)cc2n1C | 98 to 100 °C |
| Cc1nn2c(-c3cccc(C(F)(F)F)c3)ccnc2c1C#N | 149 to 150 °C |
| Cc1c(C(=O)NC2CCN(Cc3ccccc3)CC2)c2cc(F)ccc2n1Cc1ccccc1 | 194 to 195 °C |
| CCOC(=O)\C=C(C)/C=C/C=C(C)/C=C/C1=C(C)C[C@@H](O)CC1(C)C | 93 to 95 °C |
| CC1(C)CN2C(N)=NC(c3ccc(OC(F)(F)F)cc3)(c3cccc(-c4cccnc4F)c3)C2=N1 (stereo not given) | 89 to 97 °C |
| O=C(O)CCc1cnoc1-c1ccc(F)c(Br)c1 | 136 to 137 °C |
| CCOC(=O)C(=CN)C(=O)c1cc(F)c(F)c(F)c1F | 118 to 119 °C |
| CC(=NC(C)c1ccc(Cl)cc1Cl)c1ccc(Cl)cc1Cl (stereo not given) | 77 to 85 °C |
| O=C(O)c1cccc2c1[nH]c1ccc(F)cc12 | 254 °C |
| NCc1cc(Cl)ccc1OCC(N)=O | 135 to 137 °C |
| CCOc1cc(C(CC(=O)OC)N2Cc3ccccc3C2=O)ccc1OC (stereo not given) | 78 to 80 °C |
| CSc1sc(-c2nccs2)c2c1C(=O)CCC2(C)C | 188 to 190 °C |
| CCOC(=O)CC(=O)NC(=O)N1CC1C#N (stereo not given) | 121 to 123 °C |
| Fc1ccc(-c2ncc(Br)cn2)cc1F | 148 °C |
| O=C(O)CCc1cc(C(=O)c2cccc(C(=O)O)c2)ccc1O | 197 to 200 °C |
| Cc1cccc(Nc2cc(Nc3cccc(OCC4CO4)c3)ncn2)c1 (stereo not given) | 143 to 145 °C |
| COc1cc2c(cc1OC)CN(c1cc(N)c3cc(OC)c(OC)cc3n1)CC2 | 226 to 227 °C |
| FC(F)(F)Oc1ccc2nc(Cl)sc2c1 | < 50 °C |
| Cc1nn(CCC(C)O)c(-c2ccc(F)cc2)c1-c1ccc2c(c1)NC(=O)CO2 (stereo not given) | 158 to 159 °C |
| Fc1ccc2c(c1)Oc1ccccc1-c1nc(S)[nH]c1-2 | 299 to 300 °C |
| CC(C)(C)OC(=O)COc1ccc(-c2c(Cl)c(CN3C(=O)CCC3=O)nc3sc4c(c23)CCS(=O)(=O)C4)cc1 | 204 to 205 °C |
| CCN(Cc1ccccc1)C(=O)c1c(-c2ccncc2)c(-c2ccc(F)cc2)nn1CC | 115 to 117 °C |
| COc1ccc(Cl)cc1C(=O)NC1COc2cc(C)ccc2C1=O (stereo not given) | 177 to 178 °C |

From a melting point compilation (Tetko et al.; mined from patent text by program, amines drawn as free bases though some values may be those of a salt)
